Source: US7718655B2, “Trisubstituted triazine compounds, and methods for making and using the compounds, which have antitubulin activity” (New York University, priority 2001, dated 2010)
Like-named read-outs stand apart in the source and are kept apart here.

What was measured:
tubulin = system: T1, tubulin; test: In vitro microtubule disassembly assay; type: biochemical; settings: tubulin and rhodamine-tubulin, 37° C. for 20 minutes, fluorescence microscopy
T1 construct: fused on or other part: rhodamine label on part of the tubulin (a fluorescent tracer, not a protein)
Description: In Vitro Microtubule Disassembly Assay
Reagent A was made by mixing 250 mg/25 mL tubulin and rhodamine-tubulin (60 mg/6 mL), purchased from Cytoskeleton, with 20 mL, 10 mM GTP at 0° C. Reagent B was made by dissolving the compounds (various concentrations, 2 mL in DMSO) in 2×assay buffer (200 mL, 80 mM K PIPES (pH 7.5), 5 mM MgCl2, 1 mM EDTA). Two mL of Reagent A and two mL of Reagent B were mixed in a […] and incubated at 37° C. for 20 minutes. Then, 100 uL of 60% glycerol was added and mixed by gently pipetting the mixture up and down three times. Two uL of the mixture was placed onto a glass slide, covered with a coverslip, and observed by fluorescence microscopy (400×magnification, rhodamine channel).

[1] = system: Human U937 leukemia cells; test: Growth inhibition of cancer cells (MTS); type: cell-based; settings: 490 nm, read-out: IC50 (Cancer cell growth inhibition)
Description: Growth Inhibition of Cancer Cells
Human U937 leukemia cells were obtained from ATCC. Cells were grown in proliferation media (RPMI-1640 plus 2.38 g/L HEPES, 4.5 g/L glucose, 1.5 g/L NaHCO3, 0.3 g/L Glutamine, 0.11 g Na Pyruvate) plus 20% fetal calf serum. Cells were kept at 37° C., 5% CO2, at a concentration of 0.2-1×10^6 cells/ml. To a 100 μl cell suspension in 96-well plate (1×10^4 cells/well), 20 μl of MTS tetrazolium reagent solution (Promega) in RPMI -1640 medium was added for 2 hours at 37° C. in a 5% CO2 atmosphere. After the incubation period, the reduced formazan product was measured at 490 nm using a plate reader.

[2] = Homo sapiens, U-937, MTS tetrazolium reagent

Structure (SMILES)	IC50 (tubulin) [µM]	IC50 [1, 2] [µM]	IC50 ([1]; MTS tetrazolium reagent) [µM]
COc1ccc(CNc2nc(NCc3ccc(OC)cc3)nc(NC3CCCC3)n2)cc1 [Compound S1]	8	10	
COc1ccc(CNc2nc(NCc3ccc(OC)cc3)nc(NCC3CCCO3)n2)cc1 (stereo not drawn) [Compound S17]	< 20	10	
COc1ccc(CNc2nc(NCc3ccc(OC)cc3)nc(NC3CC3)n2)cc1 [Compound S22]	< 20	25	
CCC(C)Nc1nc(NCc2ccc(OC)cc2)nc(NCc2ccc(OC)cc2)n1 (stereo not drawn) [Compound S25]	< 20	25	
CNc1nc(NCc2ccc(OC)cc2)nc(NCc2ccc(OC)cc2)n1 [Compound S33]	< 20	18	
COc1ccc(CNc2nc(NCCO)nc(NCc3ccc(OC)cc3)n2)cc1 [Compound S34]	< 20	20	
COc1ccc(CNc2nc(NCc3ccc(OC)cc3)nc(NC3CCC3)n2)cc1 [Compound S43]	< 20	12	
CCNc1nc(NCc2ccc(OC)cc2)nc(NCc2ccc(OC)cc2)n1 [Compound S51]	< 20	20	
COc1ccc(CNc2nc(NCc3ccc(OC)c(OC)c3)nc(NC3CCCCC3)n2)cc1 [Compound S53]	2.5	1	
COc1ccc(CNc2nc(NCc3ccc(OC)cc3)nc(NC3CCCCC3)n2)cc1 [Compound S77, N-Cyclohexyl-N′,N″-bis-(4-methoxybenzyl)-[1,3,5]Triazine-2,4,6-triamine]	< 20	5	
COc1ccc(CNc2nc(NCc3ccc(OC)cc3)nc(N3CCOCC3)n2)cc1 [Compound S78, N′,N″-Bis-(4-methoxybenzyl)-6-morpholin-4-yl-[1,3,5]Triazine-2,4-diamine]	< 20		12
COc1ccc(CNc2nc(NCc3ccc(OC)cc3)nc(NC(C)C)n2)cc1 [Compound S84, N-Isopropyl-N′,N″-bis-(4-methoxybenzyl)-[1,3,5]Triazine-2,4,6-triamine]	< 20	9	
